pIC50: −log10 of the molar value.
Target: human Gal-3 (hGal-3) (Homo sapiens (Human), UniProt P17931)
Assay: competitive binding assay: binding of biotinylated hGal-3 to microplate-adsorbed asialofetuin (ASF), spectrophotometric
Settings: Activity on hGal-3; mean values of several measurements
Outline: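 Biotin-hGal-3/hGal-1 300-1000 ng/mL + cpd (DMSO dilutions) on ASF-coated plate, 3 h 4° C; wash; SA-HRP 80 ng/mL 1 h 4° C; wash; ABTS. IC50 = mean of several runs. hGal-1 preferably Cys→Ser (all six) mutant.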

human Gal-3 (hGal-3), sequence (P17931 whole entry): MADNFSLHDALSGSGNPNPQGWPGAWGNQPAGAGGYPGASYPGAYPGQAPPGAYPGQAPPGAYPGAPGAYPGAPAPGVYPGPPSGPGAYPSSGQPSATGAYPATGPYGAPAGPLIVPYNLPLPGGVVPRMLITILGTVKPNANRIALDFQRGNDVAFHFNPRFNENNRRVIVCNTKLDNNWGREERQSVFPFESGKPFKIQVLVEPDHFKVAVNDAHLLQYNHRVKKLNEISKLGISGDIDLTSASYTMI

| pIC50 | SMILES |
| --- | --- |
| 7.66 | CO[C@@H]1[C@@H](n2cc(-c3ccc(C)c(F)c3F)nn2)[C@@H](O)[C@@H](CO)O[C@H]1C(=O)N(c1cc(Cl)cc(C#N)c1)[C@H]1CCC[C@@H]1O [Example 1.11.4, (2R,3R,4S,5R,6R)-N-(3-chloro-5-cyanophenyl)-4-(4-(2,3-difluoro-4-methylphenyl)-1H-1,2,3-triazol-1-yl)-5-hydroxy-N-((1S,2S)-2-hydroxycyclopentyl)-6-(hydroxymethyl)-3-methoxytetrahydro-2H-pyran-2-carboxamide] |
| 7.27 | CO[C@@H]1[C@@H](n2cc(-c3ccc(C)c(F)c3F)nn2)[C@@H](O)[C@@H](CO)O[C@H]1C(=O)N(c1cc(Cl)cc(C#N)c1)[C@@H]1CCC[C@H]1O [Example 1.11.4R, (2R,3R,4S,5R,6R)-N-(3-chloro-5-cyanophenyl)-4-(4-(2,3-difluoro-4-methylphenyl)-1H-1,2,3-triazol-1-yl)-5-hydroxy-N-((1R,2R)-2-hydroxycyclopentyl)-6-(hydroxymethyl)-3-methoxytetrahydro-2H-pyran-2-carboxamide] |
| 7.14 | CO[C@@H]1[C@@H](n2cc(-c3ccc(C)c(F)c3F)nn2)[C@@H](O)[C@@H](CO)O[C@H]1C(=O)N(c1cc(Br)cc(C#N)c1)[C@@H]1CCC[C@H]1O [Example 1.11.5R, (2R,3R,4S,5R,6R)-N-(3-bromo-5-cyanophenyl)-4-(4-(2,3-difluoro-4-methylphenyl)-1H-1,2,3-triazol-1-yl)-5-hydroxy-N-((1R,2R)-2-hydroxycyclopentyl)-6-(hydroxymethyl)-3-methoxytetrahydro-2H-pyran-2-carboxamide] |
| 7.66 | CO[C@@H]1[C@@H](n2cc(-c3ccc(Br)c(F)c3F)nn2)[C@@H](O)[C@@H](CO)O[C@H]1C(=O)N(c1cc(Cl)cc(C#N)c1)[C@H]1CCC[C@@H]1O [Example 1.12.4, (2R,3R,4S,5R,6R)-4-(4-(4-bromo-2,3-difluorophenyl)-1H-1,2,3-triazol-1-yl)-N-(3-chloro-5-cyanophenyl)-5-hydroxy-N-((1S,2S)-2-hydroxycyclopentyl)-6-(hydroxymethyl)-3-methoxytetrahydro-2H-pyran-2-carboxamide] |
| 7.04 | CO[C@@H]1[C@@H](n2cc(-c3ccc(Br)c(F)c3F)nn2)[C@@H](O)[C@@H](CO)O[C@H]1C(=O)N(c1cc(Cl)cc(C#N)c1)[C@@H]1CCC[C@H]1O [Example 1.12.4R, (2R,3R,4S,5R,6R)-4-(4-(4-bromo-2,3-difluorophenyl)-1H-1,2,3-triazol-1-yl)-N-(3-chloro-5-cyanophenyl)-5-hydroxy-N-((1R,2R)-2-hydroxycyclopentyl)-6-(hydroxymethyl)-3-methoxytetrahydro-2H-pyran-2-carboxamide] |
| 7.90 | CO[C@@H]1[C@@H](n2cc(-c3ccc(Cl)c(F)c3F)nn2)[C@@H](O)[C@@H](CO)O[C@H]1C(=O)N(c1cc(Cl)cc(C#N)c1)[C@H]1CCC[C@@H]1O [Example 1.14.4, (2R,3R,4S,5R,6R)-4-(4-(4-chloro-2,3-difluorophenyl)-1H-1,2,3-triazol-1-yl)-N-(3-chloro-5-cyanophenyl)-5-hydroxy-N-((1S,2S)-2-hydroxycyclopentyl)-6-(hydroxymethyl)-3-methoxytetrahydro-2H-pyran-2-carboxamide] |
| 7.05 | CO[C@@H]1[C@@H](n2cc(-c3ccc(Cl)c(F)c3F)nn2)[C@@H](O)[C@@H](CO)O[C@H]1C(=O)N(c1cc(Cl)cc(C#N)c1)[C@@H]1CCC[C@H]1O [Example 1.14.4R, (2R,3R,4S,5R,6R)-4-(4-(4-chloro-2,3-difluorophenyl)-1H-1,2,3-triazol-1-yl)-N-(3-chloro-5-cyanophenyl)-5-hydroxy-N-((1R,2R)-2-hydroxycyclopentyl)-6-(hydroxymethyl)-3-methoxytetrahydro-2H-pyran-2-carboxamide] |

Continued, compound first:

| SMILES | pIC50 |
| --- | --- |
| CO[C@@H]1[C@@H](n2cc(-c3ccc(C)c(F)c3F)nn2)[C@@H](O)[C@@H](CO)O[C@H]1C(=O)N(c1cc(Cl)cc(Cl)c1)[C@H]1CCC[C@@H]1O [Example 1.11.2, (2R,3R,4S,5R,6R)-N-(3,5-dichlorophenyl)-4-(4-(2,3-difluoro-4-methylphenyl)-1H-1,2,3-triazol-1-yl)-5-hydroxy-N-((1S,2S)-2-hydroxycyclopentyl)-6-(hydroxymethyl)-3-methoxytetrahydro-2H-pyran-2-carboxamide] | 7.82 |
| CO[C@@H]1[C@@H](n2cc(-c3ccc(C)c(F)c3F)nn2)[C@@H](O)[C@@H](CO)O[C@H]1C(=O)N(c1cc(Br)cc(C#N)c1)[C@H]1CCC[C@@H]1O [Example 1.11.5, (2R,3R,4S,5R,6R)-N-(3-bromo-5-cyanophenyl)-4-(4-(2,3-difluoro-4-methylphenyl)-1H-1,2,3-triazol-1-yl)-5-hydroxy-N-((1S,2S)-2-hydroxycyclopentyl)-6-(hydroxymethyl)-3-methoxytetrahydro-2H-pyran-2-carboxamide] | 7.83 |
| CO[C@@H]1[C@@H](n2cc(-c3ccc(Br)c(F)c3F)nn2)[C@@H](O)[C@@H](CO)O[C@H]1C(=O)N(c1cc(Cl)cc(Cl)c1)[C@H]1CCC[C@@H]1O [Example 1.12.2, (2R,3R,4S,5R,6R)-4-(4-(4-bromo-2,3-difluorophenyl)-1H-1,2,3-triazol-1-yl)-N-(3,5-dichlorophenyl)-5-hydroxy-N-((1S,2S)-2-hydroxycyclopentyl)-6-(hydroxymethyl)-3-methoxytetrahydro-2H-pyran-2-carboxamide] | 7.63 |
| CO[C@@H]1[C@@H](n2cc(-c3ccc(Br)c(F)c3F)nn2)[C@@H](O)[C@@H](CO)O[C@H]1C(=O)N(c1cc(Br)cc(C#N)c1)[C@H]1CCC[C@@H]1O [Example 1.12.5, (2R,3R,4S,5R,6R)-4-(4-(4-bromo-2,3-difluorophenyl)-1H-1,2,3-triazol-1-yl)-N-(3-bromo-5-cyanophenyl)-5-hydroxy-N-((1S,2S)-2-hydroxycyclopentyl)-6-(hydroxymethyl)-3-methoxytetrahydro-2H-pyran-2-carboxamide] | 7.87 |
| CO[C@@H]1[C@@H](n2cc(-c3ccc(Br)c(F)c3F)nn2)[C@@H](O)[C@@H](CO)O[C@H]1C(=O)N(c1cc(F)cc(C#N)c1)[C@H]1CCC[C@@H]1O [Example 1.12.7, (2R,3R,4S,5R,6R)-4-(4-(4-bromo-2,3-difluorophenyl)-1H-1,2,3-triazol-1-yl)-N-(3-cyano-5-fluorophenyl)-5-hydroxy-N-((1S,2S)-2-hydroxycyclopentyl)-6-(hydroxymethyl)-3-methoxytetrahydro-2H-pyran-2-carboxamide] | 7.67 |
| CO[C@@H]1[C@@H](n2cc(-c3ccc(Br)c(F)c3F)nn2)[C@@H](O)[C@@H](CO)O[C@H]1C(=O)N(c1cc(F)cc(C#N)c1)[C@@H]1CCC[C@H]1O [Example 1.12.7R, (2R,3R,4S,5R,6R)-4-(4-(4-bromo-2,3-difluorophenyl)-1H-1,2,3-triazol-1-yl)-N-(3-cyano-5-fluorophenyl)-5-hydroxy-N-((1R,2R)-2-hydroxycyclopentyl)-6-(hydroxymethyl)-3-methoxytetrahydro-2H-pyran-2-carboxamide] | 7.02 |
| CO[C@@H]1[C@@H](n2cc(-c3ccc(C)c(F)c3)nn2)[C@@H](O)[C@@H](CO)O[C@H]1C(=O)N(c1cc(Br)cc(C#N)c1)[C@H]1CCC[C@@H]1O [Example 1.13.5, (2R,3R,4S,5R,6R)—N-(3-bromo-5-cyanophenyl)-4-(4-(3-fluoro-4-methylphenyl)-1H-1,2,3-triazol-1-yl)-5-hydroxy-N-((1S,2S)-2-hydroxycyclopentyl)-6-(hydroxymethyl)-3-methoxytetrahydro-2H-pyran-2-carboxamide] | 7.77 |
| CO[C@@H]1[C@@H](n2cc(-c3ccc(C)c(F)c3)nn2)[C@@H](O)[C@@H](CO)O[C@H]1C(=O)N(c1cc(Br)cc(C#N)c1)[C@@H]1CCC[C@H]1O [Example 1.13.5R, (2R,3R,4S,5R,6R)-N-(3-bromo-5-cyanophenyl)-4-(4-(3-fluoro-4-methylphenyl)-1H-1,2,3-triazol-1-yl)-5-hydroxy-N-((1R,2R)-2-hydroxycyclopentyl)-6-(hydroxymethyl)-3-methoxytetrahydro-2H-pyran-2-carboxamide] | 6.78 |
| CO[C@@H]1[C@@H](n2cc(-c3ccc(C)c(F)c3)nn2)[C@@H](O)[C@@H](CO)O[C@H]1C(=O)N(c1cc(C)cc(C#N)c1)[C@H]1CCC[C@@H]1O [Example 1.13.8, (2R,3R,4S,5R,6R)-N-(3-cyano-5-methylphenyl)-4-(4-(3-fluoro-4-methylphenyl)-1H-1,2,3-triazol-1-yl)-5-hydroxy-N-((1S,2S)-2-hydroxycyclopentyl)-6-(hydroxymethyl)-3-methoxytetrahydro-2H-pyran-2-carboxamide] | 7.48 |
| CO[C@@H]1[C@@H](n2cc(-c3ccc(C)c(F)c3)nn2)[C@@H](O)[C@@H](CO)O[C@H]1C(=O)N(c1cc(C)cc(C#N)c1)[C@@H]1CCC[C@H]1O [Example 1.13.8R, (2R,3R,4S,5R,6R)-N-(3-cyano-5-methylphenyl)-4-(4-(3-fluoro-4-methylphenyl)-1H-1,2,3-triazol-1-yl)-5-hydroxy-N-((1R,2R)-2-hydroxycyclopentyl)-6-(hydroxymethyl)-3-methoxytetrahydro-2H-pyran-2-carboxamide] | 6.69 |
| CO[C@@H]1[C@@H](n2cc(-c3ccc(Cl)c(F)c3F)nn2)[C@@H](O)[C@@H](CO)O[C@H]1C(=O)N(c1cc(Br)cc(C#N)c1)[C@H]1CCC[C@@H]1O [Example 1.14.5, (2R,3R,4S,5R,6R)-N-(3-bromo-5-cyanophenyl)-4-(4-(4-chloro-2,3-difluorophenyl)-1H-1,2,3-triazol-1-yl)-5-hydroxy-N-((1S,2S)-2-hydroxycyclopentyl)-6-(hydroxymethyl)-3-methoxytetrahydro-2H-pyran-2-carboxamide] | 7.76 |
| CO[C@@H]1[C@@H](n2cc(-c3ccc(Cl)c(F)c3F)nn2)[C@@H](O)[C@@H](CO)O[C@H]1C(=O)N(c1cc(Br)cc(C#N)c1)[C@@H]1CCC[C@H]1O [Example 1.14.5R, (2R,3R,4S,5R,6R)-N-(3-bromo-5-cyanophenyl)-4-(4-(4-chloro-2,3-difluorophenyl)-1H-1,2,3-triazol-1-yl)-5-hydroxy-N-((1R,2R)-2-hydroxycyclopentyl)-6-(hydroxymethyl)-3-methoxytetrahydro-2H-pyran-2-carboxamide] | 7.59 |
